Results taken from US12275731B2, “Azaindole inhibitors of wild-type and mutant forms of LRRK2” (DANA-FARBER CANCER INSTITUTE, INC., priority 2018, dated 2025).
Like-named read-outs stand apart in the source and are kept apart here.

Columns and labels:
LRRK2 WT enzyme = target: T1, LRRK2 WT enzyme (Homo sapiens, UniProt Q5S007); assay: LRRK2 wild type kinase inhibition assay (ADP-Glo); format: biochemical
T1 construct: purchased Thermo Fisher Scientific PR8604B
Procedure: (§1) IC50 experiments were performed for inventive compounds. An exemplary kit to perform this assay includes the Adapta™ Screening Protocol and Assay Conditions by Invitrogen™ (Fisher Scientific™, Catalog No. PV5099).
(§2) All LRRK2 kinase inhibition assays were conducted by using Promega ADP-Glo™ Kinase assay systems (Catalog number; V4475). Inhibitors were tested with 12 concentrations over a 5-fold serial dilution series (50 μM, 10 μM, 2 μM, 400 nM, 80 nM, 16 nM, 3.2 nM, […]) and PF06447475 as positive control. For the LRRK2 wild type (WT) enzyme assay, each inhibitor was mixed with 0.2 μg/μL of substrate (LRRKtide, SignalChem, Richmond, BC, Canada), […] (Invitrogen™, Carlsbad, CA), 24 ng of LRRK2 WT enzyme (Thermo Fisher Scientific, PR8604B) in 384-well plate. For LRRK G2019S, each compound was mixed with 0.2 μg/μL of substrate, […], 16 ng of LRRK2 G2019S enzyme (SignalChem, L10-12GG). All samples were diluted with kinase reaction buffer (40 mmol/L TrisHCl, 10 mmol/L MgCl2, and 0.1 μg/μL BSA (bovine serum albumin)). After 2 hours at 25° C., ADP-Glo™ (Promega, Madison, WI) reagent was added and the samples were incubated at rt for 40 min. Finally, Kinase Detection Reagent was added and the resulting mixtures were allowed to react at rt for 10 min. Luminescence signals were detected using Synergy™ Neo2 microplate reader (Bio-Tek). Compound inhibition curve was fitted using Graphpad Prism 8.0 software.

LRRK2(G2019S) = LRRK2(G2019S) (Homo sapiens, UniProt Q5S007, G2019S); assay: LRRK2 G2019S kinase inhibition assay (ADP-Glo); format: biochemical; design: purchased SignalChem L10-12GG
Chain of LRRK2(G2019S) (Q5S007 970-2527 G2019S limits assumed): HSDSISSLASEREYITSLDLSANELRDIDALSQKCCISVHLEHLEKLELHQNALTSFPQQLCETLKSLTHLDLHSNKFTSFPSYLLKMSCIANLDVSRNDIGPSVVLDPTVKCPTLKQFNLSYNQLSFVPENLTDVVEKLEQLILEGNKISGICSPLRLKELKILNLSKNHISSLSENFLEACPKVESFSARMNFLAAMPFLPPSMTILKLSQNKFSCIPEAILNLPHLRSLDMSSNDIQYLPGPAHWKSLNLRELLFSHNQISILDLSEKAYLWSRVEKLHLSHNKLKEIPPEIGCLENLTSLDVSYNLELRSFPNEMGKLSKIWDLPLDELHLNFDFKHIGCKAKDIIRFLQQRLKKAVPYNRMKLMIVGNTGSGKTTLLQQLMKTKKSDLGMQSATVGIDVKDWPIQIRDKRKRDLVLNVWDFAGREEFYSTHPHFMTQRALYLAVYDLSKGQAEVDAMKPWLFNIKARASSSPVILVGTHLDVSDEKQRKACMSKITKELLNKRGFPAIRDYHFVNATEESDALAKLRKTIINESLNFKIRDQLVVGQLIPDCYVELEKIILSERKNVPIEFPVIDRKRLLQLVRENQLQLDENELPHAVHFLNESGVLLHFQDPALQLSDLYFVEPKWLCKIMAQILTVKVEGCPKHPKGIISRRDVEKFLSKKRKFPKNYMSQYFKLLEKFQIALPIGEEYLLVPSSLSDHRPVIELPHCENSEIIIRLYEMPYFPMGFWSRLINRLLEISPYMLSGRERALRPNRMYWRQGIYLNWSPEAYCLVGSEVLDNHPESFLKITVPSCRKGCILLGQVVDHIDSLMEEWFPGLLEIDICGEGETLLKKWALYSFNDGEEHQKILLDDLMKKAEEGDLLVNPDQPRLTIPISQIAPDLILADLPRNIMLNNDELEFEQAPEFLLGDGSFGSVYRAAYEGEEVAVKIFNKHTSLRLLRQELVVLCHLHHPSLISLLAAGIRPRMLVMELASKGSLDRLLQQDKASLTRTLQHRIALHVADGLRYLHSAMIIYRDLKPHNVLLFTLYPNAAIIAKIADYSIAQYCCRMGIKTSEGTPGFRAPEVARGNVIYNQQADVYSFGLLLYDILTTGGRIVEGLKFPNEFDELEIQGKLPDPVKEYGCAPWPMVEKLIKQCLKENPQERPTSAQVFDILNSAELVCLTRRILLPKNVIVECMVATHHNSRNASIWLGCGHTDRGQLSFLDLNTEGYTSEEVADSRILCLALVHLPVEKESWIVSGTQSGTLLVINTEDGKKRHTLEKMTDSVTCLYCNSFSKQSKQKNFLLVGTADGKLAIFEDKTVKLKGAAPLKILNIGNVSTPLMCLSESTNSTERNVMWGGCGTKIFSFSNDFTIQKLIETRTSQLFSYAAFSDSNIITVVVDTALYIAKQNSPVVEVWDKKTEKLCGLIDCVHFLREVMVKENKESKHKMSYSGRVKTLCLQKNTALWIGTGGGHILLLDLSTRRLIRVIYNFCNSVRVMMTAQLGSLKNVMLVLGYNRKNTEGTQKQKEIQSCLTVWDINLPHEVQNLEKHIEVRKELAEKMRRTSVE
Procedure: as §1, §2

[1] = Table 1, read-out: IC50 (nM) LRRK2 wt
[2] = Table 1, read-out: IC50 (nM) LRRK2 G2019S
[3] = Table 2, class symbols, read-out: Enzyme activity against LRRK2 WT (IC50)
[4] = Table 2, class symbols, read-out: Enzyme activity against LRRK2 G2019S (IC50)

T1 sequence (Q5S007 970-2527 limits assumed): as the sequence (Q5S007 970-2527 G2019S limits assumed) above, with S1050G counted along it

IC50 (LRRK2 WT enzyme; [1]) | IC50 (LRRK2(G2019S); [2]) | IC50 (LRRK2 WT enzyme; [3]) | IC50 (LRRK2(G2019S); [4]) | SMILES
544 nM | 326 nM |  |  | CNc1c(-c2cnn(C(C)(C)C#N)c2)cnc2[nH]ccc12 [Compound 1, 2-methyl-2-(4-(4-(methylamino)-1H-pyrrolo[2,3-b]pyridin-5-yl)-1H-pyrazol-1-yl)propanenitrile]
15 nM | 14 nM |  |  | CNc1c(-c2cnn(C(C)(C)C#N)c2)cnc2[nH]cc(Cl)c12 [Compound 4, 2-(4-(3-chloro-4-(methylamino)-1H-pyrrolo[2,3-b]pyridin-5-yl)-1H-pyrazol-1-yl)-2-methylpropanenitrile]
22 nM | 20 nM |  |  | CNc1c(-c2cnn(C3CCN(C)CC3)c2)cnc2[nH]cc(Cl)c12 [Compound 5, 3-chloro-N-methyl-5-(1-(1-methylpiperidin-4-yl)-1H-pyrazol-4-yl)-1H-pyrrolo[2,3-b]pyridin-4-amine]
38 nM | 26 nM |  |  | CNc1c(C(F)(F)F)cnc2[nH]cc(-c3cnn(C(C)(C)C#N)c3)c12 [Compound 7, 2-methyl-2-(4-(4-(methylamino)-5-(trifluoromethyl)-1H-pyrrolo[2,3-b]pyridin-3-yl)-1H-pyrazol-1-yl)propanenitrile]
103 nM | 61 nM |  |  | CNc1c(C(F)(F)F)cnc2[nH]cc(-c3cnn(C4CCN(C)CC4)c3)c12 [Compound 8, N-methyl-3-(1-(1-methylpiperidin-4-yl)-1H-pyrazol-4-yl)-5-(trifluoromethyl)-1H-pyrrolo[2,3-b]pyridin-4-amine]
36.6 nM | 83.1 nM |  |  | CCc1cc(-c2cnc3[nH]cc(Cl)c3c2NC)nn1C [Compound 9, 3-chloro-5-(5-ethyl-1-methyl-1H-pyrazol-3-yl)-N-methyl-1H-pyrrolo[2,3-b]pyridin-4-amine]
259 nM | 523 nM |  |  | CCc1cc(-c2cnc3[nH]cc(Cl)c3c2NC(C)C)nn1C [Compound 10, 3-chloro-5-(5-ethyl-1-methyl-1H-pyrazol-3-yl)-N-isopropyl-1H-pyrrolo[2,3-b]pyridin-4-amine]
136 nM | 514 nM |  |  | CC(C)Nc1c(-c2ccn(C)n2)cnc2[nH]cc(Cl)c12 [Compound 12, 3-chloro-N-isopropyl-5-(1-methyl-1H-pyrazol-3-yl)-1H-pyrrolo[2,3-b]pyridin-4-amine]
95.2 nM | 305 nM |  |  | CNc1c(-c2nn(C)c3ccc(C#N)cc23)cnc2[nH]cc(Cl)c12 [Compound 14, 3-(3-chloro-4-(methylamino)-1H-pyrrolo[2,3-b]pyridin-5-yl)-1-methyl-1H-indazole-5-carbonitrile]
6230 nM | > 10000 nM |  |  | CNc1c(-c2c3cc(OC)ccc3nn2C)cnc2[nH]cc(Cl)c12 [Compound 16, 3-chloro-5-(5-methoxy-2-methyl-2H-indazol-3-yl)-N-methyl-1H-pyrrolo[2,3-b]pyridin-4-amine]
 |  | 10 to 100 nM | 10 to 100 nM | F[C@H]1CN(C2COC2)CC[C@@H]1n1cc(-c2cnc3[nH]ccc3c2NC2CCCC2)cn1 [Compound 31, N-cyclopentyl-5-(1-((3S,4S)-3-fluoro-1-(oxetan-3-yl)piperidin-4-yl)-1H-pyrazol-4-yl)-1H-pyrrolo[2,3-b]pyridin-4-amine]
 |  | 10 to 100 nM | 10 to 100 nM | CC(C)Nc1c(-c2ccc(C(=O)N3CCOCC3)cc2)cnc2[nH]ccc12 [Compound 48, (4-(4-(isopropylamino)-1H-pyrrolo[2,3-b]pyridin-5-yl)phenyl)(morpholino)methanone]
 |  | 10 to 100 nM | 10 to 100 nM | CC(C)Nc1c(-c2ccc(C(=O)N3CCC(N4CCOCC4)CC3)cc2)cnc2[nH]ccc12 [Compound 54, (4-(4-(isopropylamino)-1H-pyrrolo[2,3-b]pyridin-5-yl)phenyl)(4-morpholinopiperidin-1-yl)methanone]
 |  | 10 to 100 nM | 10 to 100 nM | CNc1c(-c2cnn([C@H]3CCN(C4COC4)C[C@@H]3F)c2)cnc2[nH]cc(Cl)c12 [Compound 70, 3-chloro-5-(1-((3S,4S)-3-fluoro-1-(oxetan-3-yl)piperidin-4-yl)-1H-pyrazol-4-yl)-N-methyl-1H-pyrrolo[2,3-b]pyridin-4-amine]
 |  | 10 to 100 nM | 10 to 100 nM | O=C(c1ccc(-c2cnc3[nH]cc(Cl)c3c2NC2CC2)cc1)N1CCOCC1 [Compound 93, (4-(3-chloro-4-(cyclopropylamino)-1H-pyrrolo[2,3-b]pyridin-5-yl)phenyl)(morpholino)methanone]
 |  | 10 to 100 nM | > 100 nM | O=C(c1ccc(-c2cnc3[nH]cc(Cl)c3c2NC2CC2)cc1)N1CCC(N2CCOCC2)CC1 [Compound 99, (4-(3-chloro-4-(cyclopropylamino)-1H-pyrrolo[2,3-b]pyridin-5-yl)phenyl)(4-morpholinopiperidin-1-yl)methanone]

The next lines start with the compound.

SMILES | IC50 (LRRK2 WT enzyme; [1]) | IC50 (LRRK2(G2019S); [2]) | IC50 (LRRK2 WT enzyme; [3]) | IC50 (LRRK2(G2019S); [4])
CNc1c(-c2cnn(C3CCN(C)CC3)c2)cnc2[nH]ccc12 [Compound 2, N-methyl-5-(1-(1-methylpiperidin-4-yl)-1H-pyrazol-4-yl)-1H-pyrrolo[2,3-b]pyridin-4-amine] | 891 nM | 825 nM |  | 
CNc1c(-c2cnn(C3CCOCC3)c2)cnc2[nH]ccc12 [Compound 3, N-methyl-5-(1-(tetrahydro-2H-pyran-4-yl)-1H-pyrazol-4-yl)-1H-pyrrolo[2,3-b]pyridin-4-amine] | 264 nM | 164 nM |  | 
CNc1c(-c2cnn(C3CCOCC3)c2)cnc2[nH]cc(Cl)c12 [Compound 6, 3-chloro-N-methyl-5-(1-(tetrahydro-2H-pyran-4-yl)-1H-pyrazol-4-yl)-1H-pyrrolo[2,3-b]pyridin-4-amine] | 10 nM | 15 nM |  | 
CNc1c(-c2ccn(C)n2)cnc2[nH]cc(Cl)c12 [Compound 11, 3-chloro-N-methyl-5-(1-methyl-1H-pyrazol-3-yl)-1H-pyrrolo[2,3-b]pyridin-4-amine] | 8.4 nM | 30.9 nM |  | 
CNc1c(-c2cn(C3CCOCC3)nc2C2CC2)cnc2[nH]cc(Cl)c12 [Compound 13, 3-chloro-5-(3-cyclopropyl-1-(tetrahydro-2H-pyran-4-yl)-1H-pyrazol-4-yl)-N-methyl-1H-pyrrolo[2,3-b]pyridin-4-amine] | 3600 nM | > 10000 nM |  | 
CNc1c(-c2nn(C)c3ccc(OC)cc23)cnc2[nH]cc(Cl)c12 [Compound 15, 3-(3-chloro-4-(methylamino)-1H-pyrrolo[2,3-b]pyridin-5-yl)-5-methoxy-1-methyl-1H-indazole] | 140 nM | 397 nM |  | 
CC(=O)N1CC[C@H](n2cc(-c3cnc4[nH]ccc4c3NC3CCCC3)cn2)[C@@H](F)C1 [Compound 38, 1-((3S,4S)-4-(4-(4-(cyclopentylamino)-1H-pyrrolo[2,3-b]pyridin-5-yl)-1H-pyrazol-1-yl)-3-fluoropiperidin-1-yl)ethan-1-one] |  |  | 10 to 100 nM | 10 to 100 nM
CCNc1c(-c2cnn([C@H]3CCN(C(C)=O)C[C@@H]3F)c2)cnc2[nH]cc(Cl)c12 [Compound 78, 1-((3S,4S)-4-(4-(3-chloro-4-(ethylamino)-1H-pyrrolo[2,3-b]pyridin-5-yl)-1H-pyrazol-1-yl)-3-fluoropiperidin-1-yl)ethan-1-one] |  |  | 10 to 100 nM | 10 to 100 nM
COCCNc1c(-c2cnn([C@H]3CCN(C(C)=O)C[C@@H]3F)c2)cnc2[nH]cc(Cl)c12 [Compound 81, 1-((3S,4S)-4-(4-(3-chloro-4-((2-methoxyethyl)amino)-1H-pyrrolo[2,3-b]pyridin-5-yl)-1H-pyrazol-1-yl)-3-fluoropiperidin-1-yl)ethan-1-one] |  |  | 10 to 100 nM | > 100 nM
CNc1c(-c2ccc(C(=O)N3CCOCC3)cc2)cnc2[nH]cc(Cl)c12 [Compound 90, (4-(3-chloro-4-(methylamino)-1H-pyrrolo[2,3-b]pyridin-5-yl)phenyl)(morpholino)methanone] |  |  | < 10 nM | < 10 nM
CCNc1c(-c2ccc(C(=O)N3CCOCC3)cc2)cnc2[nH]cc(Cl)c12 [Compound 91, (4-(3-chloro-4-(ethylamino)-1H-pyrrolo[2,3-b]pyridin-5-yl)phenyl)(morpholino)methanone] |  |  | 10 to 100 nM | 10 to 100 nM
CCNc1c(-c2ccc(C(=O)N3CCC(N4CCOCC4)CC3)cc2)cnc2[nH]cc(Cl)c12 [Compound 97, (4-(3-chloro-4-(ethylamino)-1H-pyrrolo[2,3-b]pyridin-5-yl)phenyl)(4-morpholinopiperidin-1-yl)methanone] |  |  | < 10 nM | 10 to 100 nM
